# Measured values taken from patent publication US20070010532A1, “3-Pyridylcarboxamide derivatives as pesticidal agents” (BAYER CROPSCIENCE GMBH, priority 2003, published 2007).
# How the values were obtained:
# [1] = system: black bean aphids (Aphis fabae); test: Method A: field bean plants (Vicia faba) and aphids dipped into aqueous solution of the formulated preparation; format: in vivo; conditions: read-out: mortality among the aphids
# Procedure: Germinated field bean seeds (Vicia faba) with seed roots were transferred into brown glass bottles filled with tap water and then populated with about 100 black bean aphids (Aphis fabae). Plants and aphids were then dipped into an aqueous solution of the formulated preparation to be examined for 5 seconds. After they had drained, plants and animals were stored in a climatized chamber (16 hours of light/day, 25° C., 40-60% relative atmospheric humidity). After 3 and 6 days of storage, the effect of the preparation on the aphids was determined. […]
# [2] = system: black bean aphids (Aphis fabae); test: Method B: root-systemic action, preparation pipetted into the bottle of field bean (Vicia faba) populated with aphids; format: in vivo; conditions: read-out: mortality among the aphids, by root-systemic action
# Procedure: Germinated field bean seeds (Vicia faba) with seed roots were transferred into brown glass bottles filled with tap water and then populated with about 100 black bean aphids (Aphis fabae). Plants and aphids were then dipped into an aqueous solution of the formulated preparation to be examined for 5 seconds. After they had drained, plants and animals were stored in a climatized chamber (16 hours of light/day, 25° C., 40-60% relative atmospheric humidity). After 3 and 6 days of storage, the effect of the preparation on the aphids was determined. […] Method B:
# Germinated field bean seeds (Vicia faba) with seed roots were transferred into brown glass bottles filled with tap water. Four milliliters of an aqueous solution of the formulated preparation to be examined were pipetted into the brown glass bottle. The field bean was then heavily populated with about 100 black bean aphids (Aphis fabae). Plants and aphids were then stored in a climatized chamber (16 hours of light/day, 25° C., 40-60% relative atmospheric humidity). After 3 and 6 days of storage, the root-systemic effect of the preparation on the aphids was determined.
Structure (SMILES),mortality at 300 ppm [1],mortality at 30 ppm [2]
"CSC1=N/C(=N\C(=O)c2cnccc2C(F)(F)F)N(C(C)=O)C1(C)C [Compound E-135, N-[(2Z)-1-acetyl-5,5-dimethyl-4-methylthio-1,5-dihydro-2H-imidazol-2-ylidene]-4-(trifluoromethyl)nicotinamide]",90 to 100%,90 to 100%
"CC1(C)N/C(=N/C(=O)c2cnccc2C(F)(F)F)N(Cc2ccc(Cl)cc2)C1=O [Compound B-529, N-[(2Z)-1-(4-chlorobenzyl)-4,4-dimethyl-5-oxo-2-imidazolidinylidene]-4-(trifluoromethyl)nicotinamide]",90 to 100%,90 to 100%
"CCC1(C)N/C(=N/C(=O)c2cnccc2C(F)(F)F)NC1=O (stereo not drawn) [Compound B-91, N-[(2Z)-4-ethyl-4-methyl-5-oxo-2-imidazolidinylidene]-4-(trifluoromethyl)nicotinamide]",90 to 100%,90 to 100%
